In patent publication US7378385B2, “Role for GLP-1 to mediate responses to disparate stressors” (University of Cincinnati, priority 2002, dated 2008):
Where no end group is shown, it is not given here.

What was measured:
HPA axis [1] = assay: Peripheral (intraperitoneal) GLP-1 effects on the HPA axis; type: in vivo, rats; conditions: peripheral administration of GLP-1
Description: Plasma ACTH and corticosterone concentrations were determined using ^125I-labeled rat ACTH and corticosterone kits according to manufacturers' instructions. The limits of detection for each kit are 15 pg/ml and 8 ng/ml, respectively. For both ACTH and corticosterone assays, all plasma samples were run in duplicate in single assays.
An additional group of six rats was prepared as described in example 1 to test the effects of peripheral administration of GLP-1 on ACTH and corticosterone (CORT) release. Using a within-subjects design, rats were administered saline and 10, 100, and 500 μg/kg GLP-1 intraperitoneally. Each rat received each treatment in a randomized manner, with no less than 5 days between treatments.

HPA axis [2] = assay: Effect of central (intracerebroventricular) GLP-1 on the HPA axis, plasma ACTH and corticosterone by RIA; type: in vivo, rats
Description: Central GLP1 effects on the HPA axis were assayed as described in Kinzig et al. (2003) J. Neuroscience 21:6163-6170, herein incorporated by reference in its entirety). Ten male Long-Evans rats (275-350 gm) were housed individually in plastic tub cages with a 12 hour light/dark cycle. […] Catheters were made of sterile SILASTIC tubing, the distal end beveled, a small piece sterile suture tied at 4 cm from the distal end, and filled with heparinized saline. The catheter was attached to a 1 ml syringe filled with heparinized saline at the end that remained at the head. Under ketamine ([…], i.p.) and xylazine (1.5 mg/kg i.p.) anesthesia, the rat's abdomen and top of the head were shaved. A midline incision (approx. 8 cm in length) was made beginning at the sternum. An additional incision was made on the skull. The catheter was subcutaneously from the skull incision to the muscle wall lining the intraperitoneal cavity with a pair of straight hemostats. The muscle wall underlying the abdominal skin incision was opened. A small incision was made in the right muscle wall, through which the catheter was pulled into the intraperitoneal cavity. […] The vein was then punctured with a 21 gauge needle, and the catheter was quickly inserted to the 4 cm mark. Heparinized saline (0.5 ml) was slowly pushed through the inserted catheter. One suture was made in the dorsal muscle wall immediately to the right of the insertion site. […]
Ten days after surgery, cannula placement was verified by administering angiotensin II through the cannula (intracerebroventricular, (i3vt)). Catheter patency was also determined 10 days after surgery. […]
Plasma was extracted and subsequently assayed (RIA) for ACTH and corticosterone (CORT). Results from one such experiment are presented in FIG. 1, panels A and B. Results were analyzed by two-way ANOVA and Tukey's HSD test.
Plasma ACTH and corticosterone concentrations were determined using ^125I-labeled rat ACTH and corticosterone kits according to manufacturers' instructions. […]

[3] = tested on: mammalian central nervous system; assay: Relative potency in the mammalian central nervous system; type: in vivo

## GLP-1: post-translational product of preproglucagon; ligand of the GLP-1 receptor (HAEGTFTSDVSSYLEGQAAKEFIAWLVKGR; ends and bridges not checked; UniProt P01275 98-127, looked up)
HPA axis [1]
  activity of the HPA axis: does not
HPA axis [2]; GLP-1 acting in the CNS
  activation of the HPA axis, dose compared with dose required to decrease food intake: potent activation of the HPA axis at doses lower than that required to decrease food intake
HPA axis [2]; central administration of GLP-1
  activity of the HPA axis: excites the HPA axis
HPA axis [2]; in vivo
  stress response: increases the stress response

## exendin 4: GLP-1 receptor agonist
[3]
  potency relative to GLP-1(7-36) amide: at least 20 times
